Legend:
Format in all cases: cell-based
[1] = target: EP2 subtype of the human PGE2 receptor (Homo sapiens, UniProt P43116); assay: cAMP antagonism test on the human EP2 receptor (HTRF cAMP detection); settings: hEP2 receptor, read-out: Antagonism hEP2 IC50
Summary of the method: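 Cells expressing human EP2 preincubated 20 min at RT with compound (0.8 nM–16.5 μM), then stimulated 60 min with PGE2 (3× solution 1.5 nM) in PBS-IBMX. After 20 min lysis, cAMP measured by competitive HTRF with cAMP-d2 and Eu cryptate anti-cAMP antibody (665/620 nm ratio).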

[2] = target: EP4 subtype of the human PGE2 receptor (Homo sapiens, UniProt P35408); assay: cAMP antagonism test on the human EP4 receptor (HTRF cAMP detection); settings: selectivity towards hEP4, IC50 measured by cAMP antagonism test
Chain of EP4 subtype of the human PGE2 receptor (P35408 whole entry): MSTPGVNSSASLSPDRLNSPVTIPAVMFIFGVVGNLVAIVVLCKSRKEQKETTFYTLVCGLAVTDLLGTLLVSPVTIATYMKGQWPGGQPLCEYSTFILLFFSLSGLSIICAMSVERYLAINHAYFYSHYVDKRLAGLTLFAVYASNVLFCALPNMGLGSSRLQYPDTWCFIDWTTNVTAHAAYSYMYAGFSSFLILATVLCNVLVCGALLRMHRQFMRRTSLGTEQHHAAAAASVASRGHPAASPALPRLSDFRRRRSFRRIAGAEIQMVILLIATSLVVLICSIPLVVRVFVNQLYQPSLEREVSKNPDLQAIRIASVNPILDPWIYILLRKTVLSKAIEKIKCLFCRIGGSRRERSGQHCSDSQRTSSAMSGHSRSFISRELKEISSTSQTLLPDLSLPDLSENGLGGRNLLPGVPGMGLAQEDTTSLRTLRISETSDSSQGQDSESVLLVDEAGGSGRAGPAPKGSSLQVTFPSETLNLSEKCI
Summary of the method: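 Cells expressing human EP4 preincubated 20 min at RT with compound (0.8 nM–16.5 μM), then stimulated with PGE2 (0.3 nM in 3× solution, with IBMX) 60 min at RT. After lysis, cAMP measured by HTRF competition (665/620 nm ratio); antagonism seen as rise in FRET signal.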

human PGD receptor = target: T1, human PGD receptor (Homo sapiens, UniProt Q13258); assay: cAMP antagonism test on the human prostaglandin D receptor (HTRF cAMP detection); settings: selectivity towards hDP, IC50 measured by cAMP antagonism test
T1 sequence (Q13258 1-359): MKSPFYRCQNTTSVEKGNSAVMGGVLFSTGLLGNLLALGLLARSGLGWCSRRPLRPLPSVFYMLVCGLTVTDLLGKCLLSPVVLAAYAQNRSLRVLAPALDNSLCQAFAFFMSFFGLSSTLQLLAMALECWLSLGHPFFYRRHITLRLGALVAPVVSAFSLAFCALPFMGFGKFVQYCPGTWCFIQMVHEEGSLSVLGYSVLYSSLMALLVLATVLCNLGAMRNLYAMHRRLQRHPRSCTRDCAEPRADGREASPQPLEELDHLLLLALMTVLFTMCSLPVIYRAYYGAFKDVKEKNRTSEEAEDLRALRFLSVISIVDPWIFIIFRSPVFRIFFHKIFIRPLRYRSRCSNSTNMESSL
Summary of the method: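 Cells pre-mixed with cAMP-d2 were preincubated with compound (0.8 nM–16.5 μM) for 20 min at RT, then stimulated with 3× PGD2 solution (6 nM, in PBS-IBMX) for 30 min at RT. After lysis (20 min), HTRF read at 665/620 nm; antagonism seen as rise in FRET ratio.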

Chain of EP2 subtype of the human PGE2 receptor (P43116 whole entry): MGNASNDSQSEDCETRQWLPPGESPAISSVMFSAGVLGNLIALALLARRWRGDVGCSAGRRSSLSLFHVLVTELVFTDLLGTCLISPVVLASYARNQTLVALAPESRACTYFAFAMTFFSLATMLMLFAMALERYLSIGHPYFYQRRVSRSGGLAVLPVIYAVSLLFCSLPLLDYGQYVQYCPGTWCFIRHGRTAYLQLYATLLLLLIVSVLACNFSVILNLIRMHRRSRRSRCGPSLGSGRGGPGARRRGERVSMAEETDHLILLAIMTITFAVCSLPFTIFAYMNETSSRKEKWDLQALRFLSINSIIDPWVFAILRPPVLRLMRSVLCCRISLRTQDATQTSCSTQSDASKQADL

Row | Compound | IC50 [1] [nM] | Selectivity hEP2/hEP4 [2] | Selectivity hEP2/hDP (human PGD receptor)
1 | COCCNC(=O)c1ccc2nn(CC3CCN(C(=O)c4ccc(-c5cccc(C(F)(F)F)n5)cc4)CC3)cc2c1C [Example 369, N-(2-methoxyethyl)-4-methyl-2-[(1-{4-[6-(trifluoromethyl)pyridin-2-yl]-benzoyl}piperidin-4-yl)methyl]-2H-indazol-5-carboxamide] | 5.66 | xxx (xxx > 100) | xxx (xxx > 100)
2 | COCCNC(=O)c1ccc2nn(CC3CCN(C(=O)c4ccc(-c5ccc(OC)cc5C)cc4)CC3)cc2c1C [Example 370, N-(2-methoxyethyl)-2-({1-[(4′-methoxy-2′-methylbiphenyl-4-yl)carbonyl]-piperidin-4-yl}methyl)-4-methyl-2H-indazol-5-carboxamide] | 3.07 | xxx (xxx > 100) | xxx (xxx > 100)
3 | COCCNC(=O)c1ccc2nn(CC3CCN(C(=O)c4ccc(-c5ccc(C(C)(C)C#N)cc5)cc4)CC3)cc2c1C [Example 372, 2-[(1-{[4′-(1-cyano-1-methylethyl)biphenyl-4-yl]carbonyl}piperidin-4-yl)-methyl]-N-(2-methoxyethyl)-4-methyl-2H-indazol-5-carboxamide] | 7.29 | xxx (xxx > 100) | xxx (xxx > 100)
4 | COCCNC(=O)c1ccc2nn(CC3CCN(C(=O)c4ccc(-c5ccc(OC)cn5)cc4)CC3)cc2c1C [Example 373, N-(2-methoxyethyl)-2-({1-[4-(5-methoxypyridin-2-yl)benzoyl]piperidin-4-yl}-methyl)-4-methyl-2H-indazol-5-carboxamide] | 40.7 | xxx (xxx > 100) | xxx (xxx > 100)
5 | COCCNC(=O)c1ccc2nn(CC3CCN(C(=O)c4ccc(-c5ccc(C(F)(F)F)nc5)cc4)CC3)cc2c1C [Example 374, N-(2-methoxyethyl)-4-methyl-2-[(1-{4-[6-(trifluoromethyl)pyridin-3-yl]-benzoyl}piperidin-4-yl)methyl]-2H-indazol-5-carboxamide] | 6.58 | xxx (xxx > 100) | xxx (xxx > 100)
6 | COCCNC(=O)c1ccc2nn(CC3CCN(C(=O)c4ccc(-c5ccc(F)cc5C)cc4)CC3)cc2c1C [Example 376, 2-({1-[(4′-fluoro-2′-methylbiphenyl-4-yl)carbonyl]piperidin-4-yl}methyl)-N-(2-methoxyethyl)-4-methyl-2H-indazol-5-carboxamide] | 3.59 | xxx (xxx > 100) | xxx (xxx > 100)
7 | COCCNC(=O)c1ccc2nn(CC3CCN(C(=O)c4ccc(-c5ccc(F)cc5OC)cc4)CC3)cc2c1C [Example 380, 2-({1-[(4′-fluoro-2′-methoxybiphenyl-4-yl)carbonyl]piperidin-4-yl}methyl)-N-(2-methoxyethyl)-4-methyl-2H-indazol-5-carboxamide] | 5.35 | xxx (xxx > 100) | xxx (xxx > 100)
8 | COCCNC(=O)c1ccc2nn(CC3CCN(C(=O)c4ccc(-c5ccc(Cl)cc5OC)cc4)CC3)cc2c1C [Example 381, 2-({1-[(4′-chloro-2′-methoxybiphenyl-4-yl)carbonyl]piperidin-4-yl}methyl)-N-(2-methoxyethyl)-4-methyl-2H-indazol-5-carboxamide] | 5.84 | xxx (xxx > 100) | xxx (xxx > 100)
9 | COCCNC(=O)c1ccc2nn(CC3CCN(C(=O)c4ccc(-c5ccc(Cl)cc5F)cc4)CC3)cc2c1C [Example 383, 2-({1-[(4′-chloro-2′-fluorobiphenyl-4-yl)carbonyl]piperidin-4-yl}methyl)-N-(2-methoxyethyl)-4-methyl-2H-indazol-5-carboxamide] | 5.78 | xxx (xxx > 100) | xxx (xxx > 100)
10 | COCCNC(=O)c1ccc2nn(CC3CCN(C(=O)c4ccc(-c5cncc(Cl)c5)cc4)CC3)cc2c1C [Example 385, 2-({1-[4-(5-chloropyridin-3-yl)benzoyl]piperidin-4-yl}methyl)-N-(2-methoxy-ethyl)-4-methyl-2H-indazol-5-carboxamide] | 13.1 | xxx (xxx > 100) | xxx (xxx > 100)

The next lines start with the values.

Row | IC50 [1] [nM] | Selectivity hEP2/hEP4 [2] | Selectivity hEP2/hDP (human PGD receptor) | Compound
11 | 6.11 | xxx (xxx > 100) | xxx (xxx > 100) | COCCNC(=O)c1ccc2nn(CC3CCN(C(=O)c4ccc(-c5ccc(Cl)cc5C)cc4)CC3)cc2c1C [Example 371, 2-({1-[(4′-chloro-2′-methylbiphenyl-4-yl)carbonyl]piperidin-4-yl}methyl)-N-(2-methoxyethyl)-4-methyl-2H-indazol-5-carboxamide]
12 | 5.8 | xxx (xxx > 100) | xxx (xxx > 100) | COCCNC(=O)c1ccc2nn(CC3CCN(C(=O)c4ccc(-c5ccc(OC)nc5)cc4)CC3)cc2c1C [Example 375, N-(2-methoxyethyl)-2-({1-[4-(6-methoxypyridin-3-yl)benzoyl]piperidin-4-yl}-methyl)-4-methyl-2H-indazol-5-carboxamide]
13 | 27.3 | xxx (xxx > 100) | xxx (xxx > 100) | COCCNC(=O)c1ccc2nn(CC3CCN(C(=O)c4ccc(-c5ccc(C)nc5)cc4)CC3)cc2c1C [Example 377, N-(2-methoxyethyl)-4-methyl-2-({1-[4-(6-methylpyridin-3-yl)benzoyl]piperidin-4-yl}methyl)-2H-indazol-5-carboxamide]
14 | 7.77 | xxx (xxx > 100) | xxx (xxx > 100) | COCCNC(=O)c1ccc2nn(CC3CCN(C(=O)c4ccc(-c5cccc(OC)n5)cc4)CC3)cc2c1C [Example 378, N-(2-methoxyethyl)-2-({1-[4-(6-methoxypyridin-2-yl)benzoyl]piperidin-4-yl}methyl)-4-methyl-2H-indazol-5-carboxamide]
15 | 62.6 | xxx (xxx > 100) | xxx (xxx > 100) | COCCNC(=O)c1ccc2nn(CC3CCN(C(=O)c4ccc(-c5cnc(C)nc5)cc4)CC3)cc2c1C [Example 379, N-(2-methoxyethyl)-4-methyl-2-({1-[4-(2-methylpyrimidin-5-yl)benzoyl]-piperidin-4-yl}methyl)-2H-indazol-5-carboxamide]
16 | 19.4 | xxx (xxx > 100) | xxx (xxx > 100) | COCCNC(=O)c1ccc2nn(CC3CCN(C(=O)c4ccc(-c5cnc(C(F)(F)F)nc5)cc4)CC3)cc2c1C [Example 382, N-(2-methoxyethyl)-4-methyl-2-[(1-{4-[2-(trifluoromethyl)pyrimidin-5-yl]-benzoyl}piperidin-4-yl)methyl]-2H-indazol-5-carboxamide]
17 | 3.95 | xxx (xxx > 100) | xxx (xxx > 100) | COCCNC(=O)c1ccc2nn(CC3CCN(C(=O)c4ccc(-c5ccc(F)cc5Cl)cc4)CC3)cc2c1C [Example 384, 2-({1-[(2′-chloro-4′-fluorobiphenyl-4-yl)carbonyl]piperidin-4-yl}methyl)-N-(2-methoxyethyl)-4-methyl-2H-indazol-5-carboxamide]

Source: patent US9062041B2 (Bayer Intellectual Property GmbH, priority 2011, dated 2015)
